According to patent US9120798B2, “Amino-heteroaryl 7-hydroxy-spiropiperidine indolinyl antagonists of P2Y1 receptor” (priority 2012, dated 2015):
Like-named read-outs stand apart in the source and are kept apart here.

Columns and labels:
[1] = system: human platelet rich plasma (PRP); test: ADP induced platelet aggregation assay; assay type: cell-based; settings: 5 min, read-out: PA IC50 (μM) @ 10 μM ADP
Protocol: ADP Induced Platelet Aggregation Assay
The ability of P2Y1 antagonists covered in the present invention to inhibit platelet aggregation induced by 10 μM ADP was tested using human platelet rich plasma (PRP) as described in Platelet Protocols: Research and Clinical Laboratory Procedures (White, M. M. et al., Academic Press (1999)). Human blood was collected in 30 μM (final concentration in blood) argatroban (GSK) as the anticoagulant at a ratio of 1 ml per 9 ml of blood. The PRP was isolated by centrifugation at 170 g for 12 minutes. The platelet poor plasma (PPP) was used as the blank for optical aggregometry. Compounds of the present invention in DMSO solution was preincubated with 250 μl PRP at 37° C. for 1 minute with stirring speed of 1000 rpm. Aggregation was initiated by addition of 2.5 μl of 1 mM ADP (Chrono-log, Havertown, Pa.) for a final ADP concentration of 10 uM. Platelet aggregation was monitored using Optical Aggregometer (Chrono-log, Havertown, Pa.) and the area under the curve (AUC) at 5 minute was measured. IC50 was calculated using vehicle control as 0% inhibition.
The platelet aggregation assay measures the in vitro antiplatelet activity of a compound in platelet rich plasma. The assay is sensitive to plasma protein binding, and is believed to be a better predictor of actual in vivo activity.

[2] = target: cloned human P2Y1 receptors (Homo sapiens (Human), UniProt P47900); test: Binding Assay B: Scintillation Proximity Assay (SPA) for P2Y1 binding
Sequence of cloned human P2Y1 receptors (P47900 whole entry): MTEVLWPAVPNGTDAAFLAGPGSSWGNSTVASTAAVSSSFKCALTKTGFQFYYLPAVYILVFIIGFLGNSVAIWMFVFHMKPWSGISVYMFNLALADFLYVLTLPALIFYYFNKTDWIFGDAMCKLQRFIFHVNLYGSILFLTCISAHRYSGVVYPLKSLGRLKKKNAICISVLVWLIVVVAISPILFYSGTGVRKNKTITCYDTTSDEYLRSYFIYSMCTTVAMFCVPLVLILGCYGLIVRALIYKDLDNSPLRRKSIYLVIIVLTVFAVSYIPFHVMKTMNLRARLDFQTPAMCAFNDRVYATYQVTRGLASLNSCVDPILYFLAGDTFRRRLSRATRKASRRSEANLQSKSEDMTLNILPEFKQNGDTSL
Protocol: Binding Assay B—Scintillation Proximity Assay (SPA) for P2Y1 Binding
A SPA membrane binding assay was used to identify inhibitors of [^33P] […] Binding reactions were performed in 384-well OptiPlates (PerkinElmer Life Sciences, Cat #6007299) in a volume of 50 μL containing ˜15 fmol of P2Y1 receptor (1.7 μg of total protein), 0.3 nM [^33P] […] Reactions were allowed to proceed to completion at room temperature for 1 hour followed by centrifugation of the plate for 5 min. About 40 μL of the aqueous solution was aspirated. Plates were sealed and the [^33P]

[3] = SPA, 0.3 nM [33P] 2MeS-ADP, Cheng-Prusoff, read-out: P2Y1 Ki (nM) using binding assay B

For `CC(C)(C)CN1CCC2(CC1)CN(c1ccccc1Nc1nnc(-c3ccncc3)s1)c1c(O)ccc(Cl)c12` [Example 10, 4-Chloro-1′-neopentyl-1-(2-((5-(pyridin-4-yl)-1,3,4-thiadiazol-2-yl)amino)phenyl)spiro[indoline-3,4′-piperidin]-7-ol], the IC50 [1] was 11.4 µM and the Ki [2] was 40.2 nM.

Work on `CC(C)(C)CN1CCC2(CC1)CN(c1ccccc1Nc1nnc(-c3ccc(C(C)(C)C)cc3)s1)c1c(O)ccc(C#N)c12` [Example 46, 1-(2-(5-(4-tert-Butylphenyl)-1,3,4-thiadiazol-2-ylamino)phenyl)-7-hydroxy-1′-neopentylspiro[indoline-3,4′-piperidine]-4-carbonitrile] yielded an IC50 [1] of 1.1 µM and a Ki [2] of 10 nM.

With `CC(C)(C)CN1CCC2(CC1)CN(c1ccccc1Nc1nnc(-c3ccccc3)s1)c1c(O)ccc(C(F)(F)F)c12` [Example 1, 1′-Neopentyl-1-(2-(5-phenyl-1,3,4-thiadiazol-2-ylamino)phenyl)-4-(trifluoromethyl)spiro[indoline-3,4′-piperidin]-7-ol] the IC50 [1] was 1 µM and the Ki [2] was 10 nM.

Work on `CC(C)(C)CN1CCC2(CC1)CN(c1ccccc1Nc1nnc(-c3ccccn3)s1)c1c(O)ccc(Cl)c12` [Example 28, 4-chloro-1′-neopentyl-1-(2-((5-(pyridin-2-yl)-1,3,4-thiadiazol-2-yl)amino)phenyl)-spiro[indoline-3,4′-piperidin]-7-ol] yielded an IC50 [1] of 5.8 µM and a Ki [2] of 6.8 nM.

`CC(C)(C)CN1CCC2(CC1)CN(c1ccccc1Nc1nc(C(C)(C)C)ns1)c1c(O)ccc(Cl)c12` [Example 36, 1-(2-(3-tert-Butyl-1,2,4-thiadiazol-5-ylamino)phenyl)-4-chloro-1′-neopentylspiro[indoline-3,4′-piperidin]-7-ol] gave an IC50 [1] of 2.1 µM and a Ki [2] of 8 nM.

Compound `CC(C)(C)CN1CCC2(CC1)CN(c1ccccc1Nc1nnc(-c3cccc(F)c3)s1)c1c(O)ccc(C(F)(F)F)c12` [Example 5, 1-(2-(5-(3-Fluorophenyl)-1,3,4-thiadiazol-2-ylamino)phenyl)-1′-neopentyl-4-(trifluoromethyl)spiro[indoline-3,4′-piperidin]-7-ol] has an IC50 [1] of 1.6 µM and a Ki [2] of 12 nM.

`CC(C)(C)CN1CCC2(CC1)CN(c1ccccc1Nc1nnc(-c3ccc(Cl)cc3)s1)c1c(O)ccc(F)c12` [Example 31, 1-(2-((5-(4-chlorophenyl)-1,3,4-thiadiazol-2-yl)amino)phenyl)-4-fluoro-1′-neopentylspiro-[indoline-3,4′-piperidin]-7-ol] gave an IC50 [1] of 4.2 µM and a Ki [2] of 6 nM.

`CC(C)(C)CN1CCC2(CC1)CN(c1ccccc1Nc1nnc(-c3ccc(OC(F)(F)F)cc3)s1)c1c(O)ccc(F)c12` [Example 30, 4-fluoro-1′-neopentyl-1-(2-((5-(4-(trifluoromethoxy)-phenyl)-1,3,4-thiadiazol-2-yl)amino)phenyl)spiro[indoline-3,4′-piperidin]-7-ol] gave an IC50 [1] of 2 µM and a Ki [2] of 5 nM.

`CC(C)(C)CN1CCC2(CC1)CN(c1ccccc1Nc1ccc(C(F)(F)F)cn1)c1c(O)ccc(Cl)c12` [Example 42, 4-Chloro-1′-neopentyl-1-(2-(5-(trifluoromethyl)pyridin-2-ylamino)phenyl)spiro[indoline-3,4′-piperidin]-7-ol] gave an IC50 [1] of 22.8 µM and a Ki [2] of 22 nM.

`CC(C)(C)CN1CCC2(CC1)CN(c1ccccc1Nc1nnc(-c3ccc(Cl)c(Cl)c3)s1)c1c(O)ccc(Cl)c12` [Example 25, 4-chloro-1-(2-((5-(3,4-dichloro-phenyl)-1,3,4-thiadiazol-2-yl)amino)phenyl)-1′-neopentylspiro[indoline-3,4′-piperidin]-7-ol] gave an IC50 [1] of 3.7 µM and a Ki [2] of 19 nM.

For `CC(C)(C)CN1CCC2(CC1)CN(c1ccccc1Nc1nnc(-c3cc(Cl)cc(Cl)c3)s1)c1c(O)ccc(Cl)c12` [Example 23, 4-chloro-1-(2-((5-(3,5-dichloro-phenyl)-1,3,4-thiadiazol-2-yl)amino)phenyl)-1′-neopentylspiro[indoline-3,4′-piperidin]-7-ol], the IC50 [1] was 3.4 µM and the Ki [2] was 19 nM.

`COC(=O)c1ccc(O)c2c1C1(CCN(CC(C)(C)C)CC1)CN2c1ccccc1Nc1nnc(-c2ccc(C(F)(F)F)cc2)s1` [Example 43, Methyl 7-hydroxy-1′-neopentyl-1-(2-(5-(4-(trifluoromethyl)phenyl)-1,3,4-thiadiazol-2-ylamino)phenyl)spiro[indoline-3,4′-piperidine]-4-carboxylate] gave an IC50 [1] of 3.1 µM and a Ki [2] of 8 nM.

`CC(C)(C)CN1CCC2(CC1)CN(c1ccccc1Nc1nnc(-c3ccccc3Cl)s1)c1c(O)ccc(Cl)c12` [Example 19, 4-chloro-1-(2-((5-(2-chloro-phenyl)-1,3,4-thiadiazol-2-yl)amino)phenyl)-1′-neopentylspiro[indoline-3,4′-piperidin]-7-ol] gave an IC50 [1] of 10.7 µM and a Ki [2, 3] of 28 nM.

`CC(C)(C)CN1CCC2(CC1)CN(c1ccccc1Nc1nnc(-c3cccc(C(F)(F)F)c3)s1)c1c(O)ccc(Cl)c12` [Example 27, 4-chloro-1′-neopentyl-1-(2-((5-(3-(trifluoromethyl)phenyl)-1,3,4-thiadiazol-2-yl)amino)-phenyl)spiro[indoline-3,4′-piperidin]-7-ol] showed an IC50 [1] of 3.2 µM and a Ki [2] of 24 nM.

In the case of `CC(C)(C)CN1CCC2(CC1)CN(c1ccccc1Nc1cc(-c3ccccc3)on1)c1c(O)ccc(Cl)c12` [Example 38, 4-Chloro-1′-neopentyl-1-(2-(5-phenylisoxazol-3-ylamino)phenyl)spiro[indoline-3,4′-piperidin]-7-ol], the IC50 [1] is reported as 9 µM and the Ki [2, 3] is reported as 66 nM.

With `CC(C)(C)CN1CCC2(CC1)CN(c1ccccc1Nc1nnc(-c3ccc(Cl)cc3)s1)c1c(O)ccc(Cl)c12` [Example 21, 4-chloro-1-(2-((5-(4-chloro-phenyl)-1,3,4-thiadiazol-2-yl)amino)phenyl)-1′-neopentylspiro[indoline-3,4′-piperidin]-7-ol] the IC50 [1] was 1.3 µM and the Ki [2, 3] was 13 nM.

In the case of `CC(C)(C)CN1CCC2(CC1)CN(c1ccccc1Nc1nc(-c3ccccc3)ns1)c1c(O)ccc(Cl)c12` [Example 35, 4-Chloro-1′-neopentyl-1-(2-(3-phenyl-1,2,4-thiadiazol-5-ylamino)phenyl)spiro[indoline-3,4′-piperidin]-7-ol], the IC50 [1] is reported as 5.4 µM and the Ki [2, 3] is reported as 6 nM.

`CCOC(=O)c1sc(Nc2ccccc2N2CC3(CCN(CC(C)(C)C)CC3)c3c(Cl)ccc(O)c32)nc1C(F)(F)F` [Example 40, Ethyl 2-(2-(4-chloro-7-hydroxy-1′-neopentylspiro[indoline-3,4′-piperidine]-1-yl)phenylamino)-4-(trifluoromethyl)thiazole-5-carboxylate] was tested, and the IC50 [1] was 1 µM and the Ki [2] was 19 nM.

`CC(C)(C)CN1CCC2(CC1)CN(c1ccccc1Nc1ncc(-c3ccccc3)s1)c1c(O)ccc(Cl)c12` [Example 11, 4-Chloro-1′-neopentyl-1-(2-(5-phenylthiazol-2-ylamino)phenyl)spiro[indoline-3,4′-piperidin]-7-ol] gave an IC50 [1] of 3.7 µM and a Ki [2] of 16 nM.

For `Cc1cccc(-c2nnc(Nc3ccccc3N3CC4(CCN(CC(C)(C)C)CC4)c4c(Cl)ccc(O)c43)s2)c1` [Example 22, 4-chloro-1′-neopentyl-1-(2-((5-(m-tolyl)-1,3,4-thiadiazol-2-yl)amino)phenyl)spiro[indoline-3,4′-piperidin]-7-ol], the IC50 [1] was 4 µM and the Ki [2] was 22 nM.

For `CC(C)(C)CN1CCC2(CC1)CN(c1ccccc1Nc1nnc(-c3ccc(F)cc3)s1)c1c(O)ccc(C(F)(F)F)c12` [Example 4, 1-(2-(5-(4-Fluorophenyl)-1,3,4-thiadiazol-2-ylamino)phenyl)-1′-neopentyl-4-(trifluoromethyl)spiro[indoline-3,4′-piperidin]-7-ol], the IC50 [1] was 2.2 µM and the Ki [2] was 15 nM.

`CC(C)(C)CN1CCC2(CC1)CN(c1ccccc1Nc1nnc(-c3ccc(C(C)(C)C)cc3)s1)c1c(O)ccc(C(F)(F)F)c12` [Example 2, 1-(2-(5-(4-tert-Butylphenyl)-1,3,4-thiadiazol-2-ylamino)phenyl)-1′-neopentyl-4-(trifluoromethyl)spiro[indoline-3,4′-piperidin]-7-ol] gave an IC50 [1] of 0.9 µM and a Ki [2, 3] of 26 nM.

For `CC(C)(C)CN1CCC2(CC1)CN(c1ccccc1Nc1nnc(-c3cc(F)ccc3Cl)s1)c1c(O)ccc(Cl)c12` [Example 24, 4-chloro-1-(2-((5-(2-chloro-5-fluorophenyl)-1,3,4-thiadiazol-2-yl)amino)phenyl)-1′-neopentylspiro[indoline-3,4′-piperidin]-7-ol], the IC50 [1] was 4.5 µM and the Ki [2] was 28 nM.

For `CC(C)(C)CN1CCC2(CC1)CN(c1ccccc1Nc1nnc(-c3ccc(OC(F)(F)F)cc3)s1)c1c(O)c(F)cc(Cl)c12` [Example 32, 4-chloro-6-fluoro-1′-neopentyl-1-(2-((5-(4-(trifluoromethoxy)-phenyl)-1,3,4-thiadiazol-2-yl)amino)phenyl)spiro[indoline-3,4′-piperidin]-7-ol], the IC50 [1] was 15.6 µM and the Ki [2] was 69 nM.
